Read-outs that look alike come from different tables or passages of the source. Ends that are not written are not given here.
Tests used:
Type in all cases: cell-based
E. cloacae = assay: Killing of bacteria: 15 min incubation in trypticase soy broth, then plating for viable organisms
Protocol: If 10⁷ E. cloacae organisms are inoculated into 1 ml of TSB in the presence of 60 ug/ml of MGN2, about 10⁶ bacteria are found to be viable on plating. […] The effective killing power of this antibiotic at a given concentration has been potentiated over 1 million-fold by the addition of fluoride.
LEGEND: Organisms were incubated in a volume of 1 ml in either trypticase soy broth alone or containing substances noted for 15 min at 37 °C. An aliquot was then diluted and plated to determine number of viable organisms.

PSEUDOMONAS AERUGINOSA = settings: Panel A: Absence of NaF; approx. 1,000 bacteria in about 200 ul trypticase soy broth
Protocol: (§1) Approximately 1,000 bacteria were seeded into about 200 ul of trypticase soy broth. Either magainin 2 carboxy terminal amide, PGLa, or ALSKALSK ALSKALSKALSKALSK (Z-44) were added in increasing concentrations in the absence (Panel A) or presence (Panel B) of 50 mM NaF.

ENTEROBACTER CLOACAE = tested on: ENTEROBACTER CLOACAE
Protocol: as §1

[1] = peptide 60ug/ml + NaF 25 mM, 10⁷ organisms in 1 ml TSB, 15 min at 37 C

Row | Substance | bacteria viable on plating (E. cloacae; 60 ug/ml peptide + 50 mM NaF, 10⁷ organisms in 1 ml TSB) | potentiation of effective killing power by the addition of fluoride (E. cloacae; 60 ug/ml peptide, with vs without NaF) | CFU (E. cloacae; [1]) | EOP (% viable) (E. cloacae; [1]) [%] | EOP (% viable) (E. cloacae; peptide 60ug/ml alone, 10⁷ organisms in 1 ml TSB, 15 min at 37 C) [%] | MINIMAL INHIBITORY CONCENTRATION (PSEUDOMONAS AERUGINOSA) | MINIMAL INHIBITORY CONCENTRATION (ENTEROBACTER CLOACAE) | MINIMAL INHIBITORY CONCENTRATION (ENTEROBACTER CLOACAE; Panel A: Absence of NaF, approx. 1,000 bacteria in about 200 ul trypticase soy broth, listed as MGN2 (Magainin II)) | EOP (% viable) (E. cloacae; NaF 25mM alone, 10⁷ organisms in 1 ml TSB, 15 min at 37 C) [%]
1 | GIGKFLHSAKKFGKAFVGEIMNS-NH2 [MGN2] | all bacteria are killed | over 1 million | 0 | 0 | 90 | MGN 2 250-500 ug/ml | exceeded 500 ug/ml | MGN2 (Magainin II) >500 ug/ml | 
2 | sodium fluoride [NaF] |  |  |  |  |  |  |  |  | 100
